Experimental data: patent publication US5032597A, “Method of using phenylquinolinecarboxylic acids and derivatives for lymthoid leukemia treatment in a mammal” (priority 1987, dated 1991)
≈ marks a conversion by molar mass, not a printed value. Where “and” joins values, the source holds several entries; their conditions need not be identical. Identical values can stand only once. Like-named read-outs stand apart in the source and are kept apart here.

Tests used:
L1210 leukemia = test: Lymphoid Leukemia L1210, survival of tumored mice; type: in vivo, CD2F1 mice; conditions: for response vs control in vivo at 12.5 mg/kg: 12.5 mg/kg i.p.; for response vs control in vivo at 200 mg/kg: 200 mg/kg i.p.
Description: The efficacy of the compounds of this invention against the transplanted mouse tumors was evaluated in test systems currently in use at the National Cancer Institute for the detection and assessment of anticancer activity. […] J. Cancer, 17, 129-142, (1981); Venditti, J. M., Seminars in Oncology, 8 (4) (1981); Goldin, A. and J. M. Venditti, in Recent Results in Cancer Research, 70, S. K. Carter and Y. Sakurai, Eds., Springer-Verlag, Berlin/Heidelberg, 1980].
The animals used in this test were CD2 F1 mice, all males weighing a minimum of 18 g and all within a 4 g weight range at the start of the test. The test group consisted of six mice. The tumor was implanted in each of the test mice by the intraperitoneal injection of 0.1 ml of diluted ascitic fluid containing 10^5 cells drawn from a mouse with L1210 leukemia. The test compounds were suspended in hydroxypropylcellulose or saline with Tween® 80 surfactant or dissolved in saline and injected intraperitoneally, at various doses, once daily for nine consecutive days starting on day one relative to the day of tumor inoculation (day 0). The control mice received injections of saline or hydroxypropylcellulose vehicle only. The mice were weighed and survivors were recorded on a regular basis for 30 days. The median survival time and the ratio of the median survival time for the treated (T) and control (C) mice was calculated. […] Drug effectiveness was assessed on the basis of the survival time. Results were expressed as a percentage of the control survival time (Median Survival Time: T/C ×100%). The criterion for effectiveness was determined by: T/C×100≥125 percent.

[1] = test system: human colon carcinoma cells HCT-15; test: Human colon tumor test in vitro, HCT-15 cell growth inhibition; type: cell-based; conditions: HCT-15 cells, compound day 1 to day 4; for in vitro HCT-15 ID50 (50 percent inhibition of number of doublings): 4320 min; for IC50: Homo sapiens, HCT-15, 72 h, read-out: in vitro HCT-15 ID50 (50 percent inhibition of number of doublings)
Description: The compound of this invention were also tested for their ability to inhibit the growth of human colon carcinoma cells in vitro.
The human colon carcinoma cells, designated HCT-15, were derived from a specimen of an adenocarcinoma of human colon removed during surgery. The cells were grown in Roswell Park Medical Institute (RPMI) Medium 1640 supplemented with 10% heat inactivated fetal calf serum, penicillin (100 units/ml), streptomycin (100 μg/ml), gentamicin (20 μg/ml), fungizone (25 μg/ml), 0.075 percent sodium bicarbonate, […] 4-(2-hydroxyethyl)-1-piperazineethanesulfonic acid and […] N-tris(hydroxymethyl)methylglycine. […] On day 1 cells from sample dishes were harvested using trypsin (0.25%) treatment and counted with a hemocytometer to determine the number of cells per dish at the time of the addition of the compounds. Compounds of this invention were added in varying concentrations to other cultures. On day 4, treated and control cultures were harvested by trypsin treatment and the number of cells was determined. The number of doublings for the control cells was determined from the cell numbers on days 1 and 4. The ID50, the concentration of compound required to inhibit by 50 percent the number of doublings, was then calculated from the dose-response curve in which cell numbers were plotted on log-log paper against compound concentrations in micrograms per ml.

[2] = Mus musculus, L1210, ip, 720 h, read-out: L1210 Leukemia % T/C (median survival time)
[3] = Mus musculus, L1210, ip, 720 h, 100 mg/kg i.p., read-out: L1210 Leukemia % T/C (median survival time)
[4] = Mus musculus, L1210, ip, 720 h, 25 mg/kg i.p., nonoptimal Q1DX9 instead of Q3DX9, read-out: L1210 Leukemia % T/C (median survival time)

Structure (SMILES) | in vitro HCT-15 ID50 (50 percent inhibition of number of doublings) [1] | IC50 [1] [µg/mL] | other results
Cc1ccc2nc(-c3ccc(C4CCCCC4)cc3)c(C)c(C(=O)O)c2c1 [Example 96] | < 0.50 µg/mL |  | response vs control in vivo at 37.5 mg/kg (L1210 leukemia; Mus musculus, L1210, ip, 720 h, 37.5 mg/kg i.p., nonoptimal Q1DX9 instead of Q3DX9, read-out: L1210 Leukemia % T/C (median survival time)): 97%
CCc1ccc2nc(-c3ccc(-c4ccccc4)cc3)c(C)c(C(=O)O)c2c1 [Example 51] |  | < 0.5 | L1210 Leukemia % T/C (median survival time) (L1210 leukemia; 75 mg/kg i.p.): 173%
Cc1c(-c2ccc(-c3ccc(F)cc3F)cc2)nc2ccc(F)cc2c1C(=O)O [Example 188] |  | < 0.01 | response vs control in vivo at 12.5 mg/kg (L1210 leukemia; [2]): 187%
CCc1c(-c2ccc(-c3ccccc3)cc2)nc2ccc(F)cc2c1C(=O)O [Example 18] | < 0.50 µg/mL |  | response vs control in vivo at 100 mg/kg (L1210 leukemia; [3]): 185%
Cc1c(-c2ccc(-c3ccccc3)cc2)nc2ccc(C(F)(F)F)cc2c1C(=O)O [Example 56] |  | < 0.5 | response vs control in vivo at 75 mg/kg (L1210 leukemia; Mus musculus, L1210, ip, 720 h, 75 mg/kg i.p., read-out: L1210 Leukemia % T/C (median survival time)): 176%
Cc1c(-c2ccc(-c3ccccc3)c(F)c2)nc2ccc(F)cc2c1C(=O)O [Example 210] | .03 µg/mL |  | L1210 Leukemia % T/C (median survival time) (L1210 leukemia; 25 mg/kg i.p.): 177%
Cc1c(-c2ccc(-c3cccc(F)c3)cc2)nc2ccc(F)cc2c1C(=O)O [Example 73] |  | < 0.1 | response vs control in vivo at 50 mg/kg (L1210 leukemia; Mus musculus, L1210, ip, 720 h, 50 mg/kg i.p., read-out: L1210 Leukemia % T/C (median survival time)): 195%
CCc1c(-c2ccc(C(C)CC)cc2)nc2ccc(F)cc2c1C(=O)O (centres unmarked) [Example 107] | 0.09 µg/mL |  | response vs control in vivo at 25 mg/kg (L1210 leukemia; [4]): 116%
Cc1c(-c2ccc(-c3ccccc3)cc2)nc2ccc(Cl)cc2c1C(=O)O [Example 171] | < 0.50 µg/mL |  | L1210 Leukemia % T/C (median survival time) (L1210 leukemia; 100 mg/kg i.p.): 164%
Cc1c(-c2ccc(SC(C)C)cc2)nc2ccc(F)cc2c1C(=O)O [Example 13] |  | 0.24 (≈ 0.675 µM) | response vs control in vivo at 400 mg/kg (L1210 leukemia; Mus musculus, L1210, ip, 720 h, 400 mg/kg i.p., read-out: L1210 Leukemia % T/C (median survival time)): 129%
Cc1c(-c2ccc(-c3ccc(O)cc3)cc2)nc2ccc(Cl)cc2c1C(=O)O [Example 192, 6-Chloro-2-(4'-hydroxy-1,1'biphenyl-4-yl)-3-methyl-4-quinolinecarboxylic acid] |  | > 1 | response vs control in vivo at 200 mg/kg (L1210 leukemia; [2]): 166%
Cc1c(-c2ccc(OCc3ccccc3)cc2)nc2ccc(F)cc2c1C(=O)O [Example 106] | 1.20 µg/mL |  | response vs control in vivo at 25 mg/kg (L1210 leukemia; [4]): 107%
O=C(O)c1cc(-c2ccc(C3CCCCC3)cc2)nc2ccc(F)cc12 [Example 95] | 0.04 µg/mL |  | response vs control in vivo at 100 mg/kg (L1210 leukemia; Mus musculus, L1210, ip, 720 h, 100 mg/kg i.p., nonoptimal Q1DX9 instead of Q3DX9, read-out: L1210 Leukemia % T/C (median survival time)): 108%
Cc1c(-c2ccc(-c3ccc(Br)cc3)cc2)nc2ccc(F)cc2c1C(=O)O [Example 102] | 1.0 µg/mL and 1.9 µg/mL |  | response vs control in vivo at 12.5 mg/kg (L1210 leukemia; [2]): 164%
CCC(C)c1ccc(-c2nc3ccc(F)cc3c(C(=O)O)c2C)cc1 (centres unmarked) [Example 9] | 0.07 µg/mL |  | response vs control in vivo at 200 mg/kg (L1210 leukemia; [2]): 127%
Cc1c(-c2ccc(Oc3ccccc3)cc2)nc2cc(Cl)ccc2c1C(=O)O [Example 50] |  | > 5 | response vs control in vivo at 100 mg/kg (L1210 leukemia; [3]): 131%
